Values quoted from earlier work in patent publication US20260256742A1, “ANDROGEN RECEPTOR ANTAGONISTS FOR THE TREATMENT OF PATIENTS WITH BIOCHEMICAL RECURRENCE OF HORMONE SENSITIVE PROSTATE CANCER” (BAYER CONSUMER CARE AG, priority 2023, published 2026).
Entries after “also recorded” stand apart in the source; their conditions may differ.

Assays:
[1] = in vitro and in vivo; cited from earlier work
AR = settings: cited from earlier work
[2] = molecular target: T1, breast cancer resistance protein (BCRP) (Homo sapiens, UniProt Q9UNQ0); settings: cited from earlier work
T1 sequence (Q9UNQ0 1-655): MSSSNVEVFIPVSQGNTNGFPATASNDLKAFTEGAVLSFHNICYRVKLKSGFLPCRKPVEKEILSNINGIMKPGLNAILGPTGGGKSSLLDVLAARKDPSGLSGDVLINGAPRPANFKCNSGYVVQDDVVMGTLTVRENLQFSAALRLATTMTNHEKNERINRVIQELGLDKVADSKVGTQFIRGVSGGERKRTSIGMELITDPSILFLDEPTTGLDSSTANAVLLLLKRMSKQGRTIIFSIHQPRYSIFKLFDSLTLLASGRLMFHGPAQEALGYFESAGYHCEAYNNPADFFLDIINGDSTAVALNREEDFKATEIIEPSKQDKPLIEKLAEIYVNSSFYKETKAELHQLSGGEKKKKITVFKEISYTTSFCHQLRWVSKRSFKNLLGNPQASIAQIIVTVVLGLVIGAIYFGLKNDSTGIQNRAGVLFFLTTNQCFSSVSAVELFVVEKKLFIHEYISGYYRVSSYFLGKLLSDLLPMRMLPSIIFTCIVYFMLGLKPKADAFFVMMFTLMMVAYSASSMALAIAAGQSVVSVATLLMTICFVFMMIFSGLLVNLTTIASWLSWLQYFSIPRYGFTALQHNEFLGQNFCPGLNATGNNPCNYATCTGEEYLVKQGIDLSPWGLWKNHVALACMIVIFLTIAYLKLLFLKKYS

OATP1B3 = molecular target: T2, OATP1B3 (Homo sapiens, UniProt Q9NPD5); settings: in vitro; cited from earlier work
T2 sequence (Q9NPD5 1-702): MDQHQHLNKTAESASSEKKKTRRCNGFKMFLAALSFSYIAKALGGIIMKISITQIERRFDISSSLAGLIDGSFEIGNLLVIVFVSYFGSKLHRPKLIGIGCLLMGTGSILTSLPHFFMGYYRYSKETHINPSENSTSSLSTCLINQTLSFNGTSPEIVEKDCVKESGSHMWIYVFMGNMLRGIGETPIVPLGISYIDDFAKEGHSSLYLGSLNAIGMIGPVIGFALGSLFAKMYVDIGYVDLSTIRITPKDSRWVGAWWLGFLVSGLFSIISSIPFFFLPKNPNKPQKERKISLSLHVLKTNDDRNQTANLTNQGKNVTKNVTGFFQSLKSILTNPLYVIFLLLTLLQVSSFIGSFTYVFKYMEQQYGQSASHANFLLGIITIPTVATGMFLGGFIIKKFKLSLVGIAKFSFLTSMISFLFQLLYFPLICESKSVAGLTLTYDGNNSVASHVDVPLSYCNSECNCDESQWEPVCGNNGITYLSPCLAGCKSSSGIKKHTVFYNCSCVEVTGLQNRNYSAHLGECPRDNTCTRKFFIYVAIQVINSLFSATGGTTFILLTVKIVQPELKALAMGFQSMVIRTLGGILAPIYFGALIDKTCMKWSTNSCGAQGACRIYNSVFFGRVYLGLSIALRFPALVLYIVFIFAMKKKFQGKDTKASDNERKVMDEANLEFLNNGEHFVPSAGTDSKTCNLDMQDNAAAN

[3] = cited from earlier work
BCRP = molecular target: T3, BCRP (Homo sapiens, UniProt Q9UNQ0); settings: in vitro; cited from earlier work
T3 sequence (Q9UNQ0 1-655): T1 sequence (Q9UNQ0 1-655)

[4] = molecular target: T4, multidrug and toxin extrusion (MATE)1 (Homo sapiens, UniProt Q96FL8); settings: in vitro; cited from earlier work
T4 sequence (Q96FL8 1-570): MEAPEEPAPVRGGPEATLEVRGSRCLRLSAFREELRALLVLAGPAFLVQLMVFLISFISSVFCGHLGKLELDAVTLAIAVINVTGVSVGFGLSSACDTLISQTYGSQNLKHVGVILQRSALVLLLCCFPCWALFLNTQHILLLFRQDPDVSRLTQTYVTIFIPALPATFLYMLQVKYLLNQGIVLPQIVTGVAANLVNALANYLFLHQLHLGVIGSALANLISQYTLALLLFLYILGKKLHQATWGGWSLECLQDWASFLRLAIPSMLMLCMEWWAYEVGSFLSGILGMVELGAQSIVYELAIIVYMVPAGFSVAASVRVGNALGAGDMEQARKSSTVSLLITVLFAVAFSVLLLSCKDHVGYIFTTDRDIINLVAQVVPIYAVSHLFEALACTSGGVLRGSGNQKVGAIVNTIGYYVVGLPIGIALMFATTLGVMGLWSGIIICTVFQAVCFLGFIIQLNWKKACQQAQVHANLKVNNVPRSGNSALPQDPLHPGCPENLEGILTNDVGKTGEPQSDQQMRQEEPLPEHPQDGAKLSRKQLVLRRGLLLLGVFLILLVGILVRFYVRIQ

[5] = molecular target: T5, organic anion-transporting polypeptide (OATP)1B1 (Homo sapiens, UniProt Q9Y6L6); settings: in vitro; cited from earlier work
T5 sequence (Q9Y6L6 1-691): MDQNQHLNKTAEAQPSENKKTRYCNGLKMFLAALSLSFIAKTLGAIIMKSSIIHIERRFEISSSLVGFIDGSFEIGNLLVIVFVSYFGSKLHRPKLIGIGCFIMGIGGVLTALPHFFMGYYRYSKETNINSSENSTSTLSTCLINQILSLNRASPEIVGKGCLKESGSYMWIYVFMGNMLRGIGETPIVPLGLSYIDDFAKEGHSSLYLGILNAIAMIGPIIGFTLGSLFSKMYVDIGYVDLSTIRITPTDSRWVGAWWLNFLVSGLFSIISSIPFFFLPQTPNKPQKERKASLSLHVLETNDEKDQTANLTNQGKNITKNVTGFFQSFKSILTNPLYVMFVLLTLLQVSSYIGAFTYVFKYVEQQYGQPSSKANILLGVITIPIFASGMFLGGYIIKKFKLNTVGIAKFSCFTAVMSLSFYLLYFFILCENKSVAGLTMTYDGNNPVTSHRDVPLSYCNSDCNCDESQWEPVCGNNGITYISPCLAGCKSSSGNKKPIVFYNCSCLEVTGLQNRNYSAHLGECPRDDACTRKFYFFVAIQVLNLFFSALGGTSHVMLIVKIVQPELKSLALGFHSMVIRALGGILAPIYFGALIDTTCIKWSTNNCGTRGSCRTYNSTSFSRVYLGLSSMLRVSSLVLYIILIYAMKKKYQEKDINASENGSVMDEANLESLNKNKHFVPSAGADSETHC

CYP2B6 = settings: in vitro; cited from earlier work

## CC(O)c1cc(C(=O)N[C@@H](C)Cn2ccc(-c3ccc(C#N)c(Cl)c3)n2)[nH]n1 (stereo partly drawn) [Darolutamide]
[1]
  interconversion of the diastereoisomers (S,R)- and (S,S)- via keto-darolutamide: Rapid interconversion
AR
  binding affinity to the AR: greater affinity than bicalutamide; also recorded: high affinity
[2]
  substrate for BCRP: substrate
OATP1B3
  inhibition of OATP1B3-mediated transport: observed
[3]; Phase I
  effect of co-administration on CYP3A4/P-gp substrates: no effect or only minor effects
[3]; because of BCRP and probably also OATPB1/OATPB3 inhibition
  increase of rosuvastatin exposure with darolutamide: 5.2 fold
[3]; co-administered itraconazole, Phase I
  increase of darolutamide exposure: 1.75 fold
[3]; with rifampicin, Phase I
  decrease of darolutamide exposure: 72%
BCRP
  inhibition of BCRP-mediated transport: observed
[4]
  inhibition of MATE1-mediated transport: observed
[5]
  inhibition of OATP1B1-mediated transport: observed
CYP2B6
  induction of CYP2B6 activity: no relevant induction
